Read-outs that look alike come from different tables or passages of the source.
What was measured:
GSPT1 = GSPT1 (Homo sapiens, UniProt P15170+Q96SW2); experiment: Immunofluorescence assay for GSPT1 degradation in CAL-Si cells; format: cell-based; set-up: CAL-Si cells were purchased from DSMZ (cat. Number ACC302); host or cells: CAL-Si (CAL-51) cells; conditions: 6 hours treatment
Protocol: The representative compounds were tested in an immunofluorescence assay for their activity to bind to degrade GSPT1. CAL-Si cells were purchased from DSMZ (cat. Number ACC302), sub-cultured in 90% Dulbecco's MEM (4.5 g/L glucose, Gibco 11965)+10% […] inactivated FBS (BioConcept, 2-01F136I) and incubated at 37° C., 5% CO2. For the assay, imaging microtiterplate Cell Carrier 96 Ultra (Perkin Elmer 6055302) were pre-coated with Fibronectin (Sigma F085, 30 μl at 0.2 μg/ml) in PBS (100 μl, Gibco 14190) for 45 min at room temperature, rinsed with PBS and CAL-Si cells (30K cells/well) were plated and let to adhere overnight. Cells were treated with compounds typically using a serial dilution ranging from 30 μM to 0.1 nM for 6 hours. Compounds were stored at 10 mM DMSO stocks. Vehicle (DMSO), positive (CC-885, 10 μM) and rescue controls (positive control plus 0.2 μM bortezomib) were also included at this stage. Cells were subsequently rinsed with PBS and fixed in 10% Formalin solution (50 μl, Sigma HT5011)) for 20 mins at room temperature. Following three consecutive PBS washes (100 μl), cells were permeabilized in 0.1% Triton X-100 in PBS (Sigma 93443, 50 μl) for 15 mins at room temperature. Following three further PBS washes, […] blocking buffer (1% BSA, Sigma A4503, in PBS) was added for 45 min for signal-to-noise reduction.
Primary antibody (human GSPT1, Sigma HPA052488) was diluted in blocking buffer (dil.1/300, 35 μl/well) and incubated with the cells overnight at 4° C. After three PBS washes, Alexa-fluor 488 coupled secondary antibodies (Invitrogen, A32731, dil.1/1000), Alexa-fluor 647-Phalloidin (Invitrogen, A22287, dil.1/200) and DAPI (Thermo, #62248, dil.1/1000) were diluted in blocking buffer and incubated with the samples for 2 hours at room temperature. After three final PBS washes, samples were conserved in […] PBS in the dark, until measurement. Image acquisition was performed on the Operetta High-Content Imager (Perkin-Elmer). Fluorescence intensity of Alexa-Fluor 488 (GSPT1), Alexa-Fluor 647 (Actin) and DAPI (Nucleus) were measured. For the determination of GSPT1 DC50 values, a custom algorithm implemented in the PerkinElmer image analysis software Harmony-Acapella® was developed. After user-defined setting of adjustment parameters, the analysis was run identically without human intervention for all image fields. DAPI staining of the nuclei was used to determine the location of cells using standard nuclei detection modules. Segmentation artifacts were removed by threshold-based filters for area, roundness and intensity. The outline of the cells was determined analogously from the sum of the normalized, smoothed DAPI and Actin channel, starting from each nucleus.
The Alexa-Fluor 488 (GSPT1) signal intensity in each cell was finally measured, in order to obtain a Mean intensity per cell. GSPT1 degradation (DC50) was calculated after normalization to controls and data import in CDD vault Database, using non-linear regression.

[1] = target: T1, Full length wild-type cereblon CRBN (Homo sapiens, UniProt Q96SW2); experiment: Fluorescence polarization (FP) assay indicating cereblon binding
T1 construct: Full length wild-type cereblon CRBN (80.0 nM, 10 μL) was incubated in assay buffer
T1 sequence (Q96SW2 whole entry): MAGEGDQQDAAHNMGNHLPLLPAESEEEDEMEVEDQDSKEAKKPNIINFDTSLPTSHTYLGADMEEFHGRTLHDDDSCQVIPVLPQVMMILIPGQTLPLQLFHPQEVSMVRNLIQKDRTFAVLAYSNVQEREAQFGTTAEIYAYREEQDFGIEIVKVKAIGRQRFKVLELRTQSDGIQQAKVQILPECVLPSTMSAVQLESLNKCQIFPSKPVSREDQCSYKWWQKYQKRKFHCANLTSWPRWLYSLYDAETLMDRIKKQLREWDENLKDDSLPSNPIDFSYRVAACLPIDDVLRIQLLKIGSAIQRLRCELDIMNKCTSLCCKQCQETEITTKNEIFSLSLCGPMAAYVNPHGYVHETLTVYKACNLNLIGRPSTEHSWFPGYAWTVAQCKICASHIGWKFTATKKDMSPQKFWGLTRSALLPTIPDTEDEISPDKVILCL
Description: Protocol for Fluorescent Polarization Assay
Compound activity was monitored in a fluorescence polarization (FP) homogeneous assay using 1-[5-({2-[2-(2-{[2-(2,6-dioxopiperidin-3-yl)-1,3-dioxo-2,3-dihydro-1H-isoindol-4-yl]oxy}acetamido)ethoxy]ethyl}carbamoyl)pentyl]-3,3-dimethyl-2-[(1E,3E)-5-[(2E)-1,3,3-trimethyl-5-sulfo-2,3-dihydro-1H-indol-2-ylidene]penta-1,3-dien-1-yl]-3H-indol-1-ium-5-sulfonate as a fluorescent probe. Unless otherwise stated, all reagents were purchased from Sigma Aldrich. Enzymatic reactions were conducted in Perkin-Elmer Black 384 well ProxiPlate Plus (catalogue no. 6008269) in 10 μL total volume. Full length wild-type cereblon CRBN (80.0 nM, 10 μL) was incubated in assay buffer containing 20 mM HEPES (pH 8.0), […], 0.5 mM TCEP and 0.05% Tween 20 in the presence or absence of compound (300 nL). Inhibitors were stored as 10 mM DMSO stocks in an inert environment (low humidity, dark, low oxygen, room temperature) using the Storage Pod System. Compounds and DMSO were dispensed using the Echo E5XX (Labcyte Inc. USA) to give concentrations from 300 to 0.937 or 3000 to 9.3 nM in a 12 data point curve. […] Following incubation at room temperature for 30 min, the assay was initiated by dispensing the probe to a final concentration of 5 nM (2.5 nL of a 20 μM stock) using the Echo E5XX. FP was measured after a period of 12 hours using a Pherastar plate reader (BMG Labtech, Germany) exciting at 590 nm and measuring the amount of parallel and perpendicular light at 675 nm. The FP signal was subsequently normalized to the no-compound control (i.e., DMSO). Analysis and IC50 values were derived using Dotmatics (Dotmatics UK) software.

[2] = read-out: Code: activity for GSPT1 degradation (DC50)
[3] = cereblon binding, CRBN 80.0 nM, probe 5 nM, FP read after 12 hours, read-out: rFP IC50
[4] = fluorescence polarization assay, read-out: IC50 value (cereblon binding)
[5] = GSPT1 degradation, read-out: DC50

Chain of GSPT1 (P15170 whole entry): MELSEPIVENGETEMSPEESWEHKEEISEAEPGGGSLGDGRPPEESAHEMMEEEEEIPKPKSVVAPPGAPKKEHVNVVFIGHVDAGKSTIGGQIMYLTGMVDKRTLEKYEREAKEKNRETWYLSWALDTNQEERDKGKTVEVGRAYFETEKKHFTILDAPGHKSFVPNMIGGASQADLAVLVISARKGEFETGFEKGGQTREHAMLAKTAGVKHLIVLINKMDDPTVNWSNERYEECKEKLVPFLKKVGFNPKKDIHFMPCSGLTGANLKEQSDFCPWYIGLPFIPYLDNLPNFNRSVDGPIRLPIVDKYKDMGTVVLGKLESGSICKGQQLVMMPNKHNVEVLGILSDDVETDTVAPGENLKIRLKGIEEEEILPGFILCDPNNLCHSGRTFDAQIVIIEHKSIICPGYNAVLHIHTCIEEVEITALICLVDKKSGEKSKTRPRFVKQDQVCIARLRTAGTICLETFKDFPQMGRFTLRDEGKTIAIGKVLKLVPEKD
Chain of GSPT1 (Q96SW2 whole entry): as the sequence (Q96SW2 whole entry) above
Chain of GSPT1 (Q16531 whole entry partner): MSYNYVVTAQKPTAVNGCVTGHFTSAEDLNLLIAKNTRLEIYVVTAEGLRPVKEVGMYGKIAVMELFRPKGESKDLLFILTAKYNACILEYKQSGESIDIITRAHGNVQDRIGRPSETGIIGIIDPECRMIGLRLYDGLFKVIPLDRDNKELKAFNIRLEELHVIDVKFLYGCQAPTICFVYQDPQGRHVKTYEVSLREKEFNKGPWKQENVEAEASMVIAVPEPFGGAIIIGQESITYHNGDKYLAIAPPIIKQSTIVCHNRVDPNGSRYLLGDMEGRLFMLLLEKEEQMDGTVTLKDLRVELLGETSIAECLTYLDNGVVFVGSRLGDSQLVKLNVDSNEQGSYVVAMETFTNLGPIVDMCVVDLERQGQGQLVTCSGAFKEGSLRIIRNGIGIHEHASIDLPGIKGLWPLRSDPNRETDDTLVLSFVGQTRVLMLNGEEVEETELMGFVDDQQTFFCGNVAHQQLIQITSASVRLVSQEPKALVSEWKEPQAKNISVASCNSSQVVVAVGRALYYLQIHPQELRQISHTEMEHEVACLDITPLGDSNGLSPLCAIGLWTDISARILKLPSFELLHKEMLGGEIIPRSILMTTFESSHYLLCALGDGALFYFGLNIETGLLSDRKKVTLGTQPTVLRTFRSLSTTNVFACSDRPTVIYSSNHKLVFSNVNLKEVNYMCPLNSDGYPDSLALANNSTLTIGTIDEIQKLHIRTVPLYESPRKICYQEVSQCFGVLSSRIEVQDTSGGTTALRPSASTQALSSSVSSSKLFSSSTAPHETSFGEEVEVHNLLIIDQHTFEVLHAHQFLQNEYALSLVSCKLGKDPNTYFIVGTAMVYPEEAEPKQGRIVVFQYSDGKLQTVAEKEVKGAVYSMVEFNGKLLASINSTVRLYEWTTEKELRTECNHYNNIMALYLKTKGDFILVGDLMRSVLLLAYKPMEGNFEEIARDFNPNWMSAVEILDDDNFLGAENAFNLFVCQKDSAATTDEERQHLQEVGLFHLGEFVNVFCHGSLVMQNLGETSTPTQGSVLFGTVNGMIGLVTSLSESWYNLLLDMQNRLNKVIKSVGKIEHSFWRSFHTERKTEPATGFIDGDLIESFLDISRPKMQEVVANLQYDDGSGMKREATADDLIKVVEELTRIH

| DC50 (GSPT1; [2]) | IC50 [1, 3] | IC50 [1, 4] | DC50 (GSPT1; [5]) | SMILES |
| --- | --- | --- | --- | --- |
| 30 to 300 nM | ≤ 500 nM | < 1100 nM | – | Cc1c(Cl)cc(NC(=O)CCc2ccc3c(c2)C(=O)N(C2CCC(=O)NC2=O)C3)cc1OCCN1CCOCC1 (centres unmarked) [Compound 39] |
| > 300 nM | ≤ 500 nM | < 1100 nM | – | Cc1c(Cl)cc(NC(=O)CCc2ccc3c(c2)C(=O)N(C2CCC(=O)NC2=O)C3)cc1OC1CCNC1 (centres unmarked) [Compound 40, N-(3-chloro-4-methyl-5-(pyrrolidin-3-yloxy)phenyl)-3-(2-(2,6-dioxopiperidin-3-yl)-3-oxoisoindolin-5-yl)propanamide] |
| ≤ 30 nM | 1100 to 1700 nM | – | 26 nM | CC(C)(C)c1ccc(NC(=O)CCc2ccc3c(c2)C(=O)N(C2CCC(=O)NC2=O)C3)cn1 (centres unmarked) [Compound 41] |
| ≤ 30 nM | 1100 to 1700 nM | – | 30 nM | Cc1c(F)cc(NC(=O)CCc2ccc3c(c2)C(=O)N(C2CCC(=O)NC2=O)C3)cc1CN1CCOCC1 (centres unmarked) [Compound 42] |
| ≤ 30 nM | 1100 to 1700 nM | – | 26 nM | CCc1cc(NC(=O)CCc2ccc3c(c2)C(=O)N(C2CCC(=O)NC2=O)C3)cc(Cl)c1C (centres unmarked) [Compound 43] |
| ≤ 30 nM | 500 to 1100 nM | < 1100 nM | 27 nM | O=C1CCC(N2Cc3ccc(CCC(=O)Nc4ccc(-c5ccccn5)cc4)cc3C2=O)C(=O)N1 (centres unmarked) [Compound 44] |
| ≤ 30 nM | 500 to 1100 nM | < 1100 nM | 22 nM | CC(C)(C)c1ccc(NC(=O)CCc2ccc3c(c2)C(=O)N(C2CCC(=O)NC2=O)C3)cc1 (centres unmarked) [Compound 45] |
| 30 to 300 nM | 500 to 1100 nM | < 1100 nM | – | CCc1cc(NC(=O)CCc2ccc3c(c2)C(=O)N(C2CCC(=O)NC2=O)C3)cnc1C (centres unmarked) [Compound 46] |
| 30 to 300 nM | 500 to 1100 nM | < 1100 nM | – | CCc1ncc(NC(=O)CCc2ccc3c(c2)C(=O)N(C2CCC(=O)NC2=O)C3)cc1C (centres unmarked) [Compound 47] |
| > 300 nM | 1100 to 1700 nM | – | – | O=C1CCC(N2Cc3ccc(CCC(=O)Nc4cnc5c(c4)COCC5)cc3C2=O)C(=O)N1 (centres unmarked) [Compound 48] |
| > 300 nM | 1100 to 1700 nM | – | – | O=C1CCC(N2Cc3ccc(CCC(=O)Nc4cnc5c(c4)CCC5)cc3C2=O)C(=O)N1 (centres unmarked) [Compound 49] |
| 30 to 300 nM | ≤ 500 nM | < 1100 nM | – | Cc1c(Cl)cc(NC(=O)CCc2ccc3c(c2)C(=O)N(C2CCC(=O)NC2=O)C3)cc1OC1CCN(C)C1 (centres unmarked) [Compound 50] |
| > 300 nM | ≤ 500 nM | < 1100 nM | – | Cc1c(Cl)cc(NC(=O)CCc2ccc3c(c2)C(=O)N(C2CCC(=O)NC2=O)C3)cc1OCC1CCNC1 (centres unmarked) [Compound 51] |
| > 300 nM | > 1700 nM | – | – | Cc1cc(NC(=O)CCc2ccc3c(c2)C(=O)N(C2CCC(=O)NC2=O)C3)cc(C)n1 (centres unmarked) [Compound 52] |
| ≤ 30 nM | 500 to 1100 nM | < 1100 nM | 22 nM | Cc1c(CN2CCOCC2)cc(NC(=O)CCc2ccc3c(c2)C(=O)N(C2CCC(=O)NC2=O)C3)cc1OC(F)(F)F (centres unmarked) [Compound 53] |
| > 300 nM | 500 to 1100 nM | < 1100 nM | – | CCc1cc(NC(=O)CCc2ccc3c(c2)C(=O)N(C2CCC(=O)NC2=O)C3)ccn1 (centres unmarked) [Compound 54] |
| > 300 nM | 1100 to 1700 nM | – | – | CC1(c2ccc(NC(=O)CCc3ccc4c(c3)C(=O)N(C3CCC(=O)NC3=O)C4)cc2)COC1 (centres unmarked) [Compound 55] |
| 30 to 300 nM | > 1700 nM | – | – | O=C1CCC(N2Cc3ccc(CCC(=O)Nc4cc(F)cc(OC(F)(F)F)c4)cc3C2=O)C(=O)N1 (centres unmarked) [Compound 56] |
| > 300 nM | ≤ 500 nM | < 1100 nM | – | CCc1cc(NC(=O)CCc2ccc3c(c2)C(=O)N(C2CCC(=O)NC2=O)C3)cc(C)n1 (centres unmarked) [Compound 57] |
| 30 to 300 nM | 1100 to 1700 nM | – | – | CC1(c2ccc(NC(=O)CCc3ccc4c(c3)C(=O)N(C3CCC(=O)NC3=O)C4)cc2)CC1 (centres unmarked) [Compound 58] |
| > 300 nM | 500 to 1100 nM | < 1100 nM | – | O=C1CCC(N2Cc3ccc(CCC(=O)Nc4cc(OC(F)(F)F)ccn4)cc3C2=O)C(=O)N1 (centres unmarked) [Compound 59] |
| 30 to 300 nM | > 1700 nM | – | – | O=C1CCC(N2Cc3ccc(CCC(=O)Nc4ccc(F)c(OC(F)(F)F)c4)cc3C2=O)C(=O)N1 (centres unmarked) [Compound 60] |
| > 300 nM | ≤ 500 nM | < 1100 nM | – | Cc1c(Cl)cc(NC(=O)CCc2ccc3c(c2)C(=O)N(C2CCC(=O)NC2=O)C3)cc1OCC1CCN(C)C1 (centres unmarked) [Compound 61] |
| 30 to 300 nM | ≤ 500 nM | < 1100 nM | – | CC(F)(F)c1ccc(NC(=O)CCc2ccc3c(c2)C(=O)N(C2CCC(=O)NC2=O)C3)cc1 (centres unmarked) [Compound 63] |
| 30 to 300 nM | 1100 to 1700 nM | – | – | Cc1ncc(NC(=O)CCc2ccc3c(c2)C(=O)N(C2CCC(=O)NC2=O)C3)cc1OC(F)(F)F (centres unmarked) [Compound 64] |
| 30 to 300 nM | > 1700 nM | – | – | CCc1cc(NC(=O)CCc2ccc3c(c2)C(=O)N(C2CCC(=O)NC2=O)C3)sn1 (centres unmarked) [Compound 65] |
| 30 to 300 nM | > 1700 nM | – | – | O=C1CCC(N2Cc3ccc(CCC(=O)Nc4cc(CN5CCOCC5)cc(OC(F)F)c4)cc3C2=O)C(=O)N1 (centres unmarked) [Compound 66] |
| > 300 nM | ≤ 500 nM | – | – | Cc1c(Cl)cc(NC(=O)CNc2ccc3c(c2)C(=O)N(C2CCC(=O)NC2=O)C3)cc1CN1CCOCC1 (centres unmarked) [Compound 67, N-(3-chloro-4-methyl-5-(morpholinomethyl)phenyl)-2-((2-(2,6-dioxopiperidin-3-yl)-3-oxoisoindolin-5-yl)amino)acetamide] |
| > 300 nM | ≤ 500 nM | – | – | Cc1c(Cl)cc(NC(=O)COc2ccc3c(c2)C(=O)N(C2CCC(=O)NC2=O)C3)cc1CN1CCOCC1 (centres unmarked) [Compound 68, N-(3-chloro-4-methyl-5-(morpholinomethyl)phenyl)-2-((2-(2,6-dioxopiperidin-3-yl)-3-oxoisoindolin-5-yl)oxy)acetamide] |
| > 300 nM | 500 to 1100 nM | – | – | Cc1ccc(NC(=O)COc2ccc3c(c2)C(=O)N(C2CCC(=O)NC2=O)C3)cc1Cl (centres unmarked) [Compound 69, N-(3-chloro-4-methylphenyl)-2-((2-(2,6-dioxopiperidin-3-yl)-3-oxoisoindolin-5-yl)oxy)acetamide] |
